Results published in patent US8318792B2, “Therapeutic agent for amyotrophic lateral sclerosis” (Nippon Medical School Foundation, priority 2006, dated 2012).

Assays:
[1] = system: G1H-G93A transgenic mice; experiment: Exercise tolerance test: inclined plane test; type: in vivo, mouse; conditions: for Inclined plane test score: 5 mg/kg oral daily from 80th day (before onset), score 0-3, 5 mg/kg; for effect in inclined plane test as compared to placebo group: 110th, 115th, 120th, 125th and 130th day, 5 mg/kg oral daily from 80th day after birth, Mann-Whitney's U test
Experimental: (§1) The following five kinds of exercise tolerance tests were conducted every fifth day from the 70th day after birth to evaluate the ability to exercise in the respective exercise tolerance tests. That is, the days for the exercise tolerance tests were every fifth days, such as the 70th day, 75th day, 80th day, 85th day and so on, after birth. The exercise tolerance tests were conducted throughout the survival period, and the post-mortem evaluation was based on the definitions of the following five kinds of exercise tolerance tests.
The apparatus used in the inclined plane test is an apparatus allowing a wooden board to be fixed at the respective angles of 45°, 65° and 80° from a horizontal plane. A mouse is placed in the posture of head-up position on the wooden board inclined at each angle and the mouse is allowed to maintain this position for 5 seconds without falling downward. In the evaluation method of the inclined plane test for each mouse, the number of seconds (TA seconds: 5 seconds or less) during which the position could be maintained without falling downward is measured at each of the angles (A) of 45°, 65° and 80°, and then the total sum value of the products of the angle (A) and the number of seconds (TA) during which the position could be maintained: Σ [Angle(A)×Time (TA)] is calculated. Since a normal mouse is capable of maintaining the position on the wooden board inclined to the respective angles for 5 seconds, the sum value of Σ [Angle(A)×Time (TA)] will be 80×5+65×5+45×5=950. The evaluation of the inclined plane test for the mouse was performed based on the following criteria: Score 0=950; Score 1=over 550 to less than 950; Score 2=over 225 to 550; and Score 3=225 and below. The post-mortem evaluation of the inclined plane test is defined as score 3.

[2] = system: G1H-G93A transgenic mice; experiment: Exercise tolerance test: beam balance test; type: in vivo, mouse; conditions: 5 mg/kg oral daily from 80th day (before onset), score 0-2
Experimental: as §1
The apparatus used in the beam balance test is constructed by maintaining a wooden beam having a diameter of 1.5 cm horizontally, and installing platforms which serve as footholds, on the respective sides in a distance of 30 cm. A mouse is placed on the platform on one side, and the time taken by the mouse to cross over the beam which is 30 cm in length and to arrive at the platform on the opposite side is measured. The evaluation of the beam balance test for the mouse was performed based on the following criteria: Score 0=The time is 10 seconds or less; Score 1=The time is more than 10 seconds to 15 seconds; and Score 2=The time is more than 15 seconds, or the mouse falls down. The post-mortem evaluation of the beam balance test is defined as score 2.

[3] = from the 125th day to 140th day after birth

SMILES | Inclined plane test score ([1]; 70th day after birth) | Inclined plane test score ([1]; 75th day after birth) | Inclined plane test score ([1]; 80th day after birth) | Inclined plane test score ([1]; 85th day after birth) | Inclined plane test score ([1]; 90th day after birth) | Inclined plane test score ([1]; 95th day after birth) | Inclined plane test score ([1]; 100th day after birth) | Inclined plane test score ([1]; 105th day after birth) | Inclined plane test score ([1]; 110th day after birth) | effect in inclined plane test as compared to placebo group [1] | Inclined plane test score ([1]; 115th day after birth) | Inclined plane test score ([1]; 120th day after birth) | Inclined plane test score ([1]; 125th day after birth) | Inclined plane test score ([1]; 130th day after birth) | Inclined plane test score ([1]; 135th day after birth) | Inclined plane test score ([1]; 140th day after birth) | Beam balance test score ([2]; 70th day after birth, 5 mg/kg) | Beam balance test score ([2]; 75th day after birth, 5 mg/kg) | Beam balance test score ([2]; 80th day after birth, 5 mg/kg) | Beam balance test score ([2]; 85th day after birth, 5 mg/kg) | also measured
CC(C)(C)COc1ccc(-n2cc(C(=O)O)cn2)cc1C#N [compound (a), 1-[3-cyano-4-(2,2-dimethylpropoxy)phenyl]-1H-pyrazole-4-carboxylic acid] | 0.0±0.0 | 0.0±0.0 | 0.0±0.0 | 0.0±0.0 | 0.0±0.0 | 0.0±0.0 | 0.0±0.0 | 0.0±0.0 | 0.0±0.0 | significant effects | 0.1±0.3 | 0.4±0.5 | 1.1±0.9 | 2.1±0.9 | 2.7±0.5 | 3.0±0.0 | 0.0±0.0 | 0.0±0.0 | 0.0±0.0 | 0.0±0.0 | Beam balance test score ([2]; 90th day after birth, 5 mg/kg): 0.0±0.0; Beam balance test score ([2]; 95th day after birth, 5 mg/kg): 0.0±0.0; Beam balance test score ([2]; 100th day after birth, 5 mg/kg): 0.0±0.0; Beam balance test score ([2]; 105th day after birth, 5 mg/kg): 0.0±0.0; Beam balance test score ([2]; 110th day after birth, 5 mg/kg): 0.1±0.3; Beam balance test score ([2]; 115th day after birth, 5 mg/kg): 0.7±0.8; Beam balance test score ([2]; 120th day after birth, 5 mg/kg): 1.2±0.9; Beam balance test score ([2]; 125th day after birth, 5 mg/kg): 1.7±0.5; Beam balance test score ([2]; 130th day after birth): 2.0 ± 0.0; Beam balance test score ([2]; 135th day after birth): 2.0 ± 0.0; Beam balance test score ([2]; 140th day after birth): 2.0 ± 0.0; Beam balance test score ([2]; from the 130th day to 140th day after birth): 2.0±0.0
Cc1nc(-c2ccc(OCC(C)C)c(C#N)c2)sc1C(=O)O [compound (c), 2-[3-cyano-4-(2-methylpropoxy)phenyl]-4-methyl-5-thiazolecarboxylic acid] | 0.0±0.0 | 0.0±0.0 | 0.0±0.0 | 0.0±0.0 | 0.0±0.0 | 0.0±0.0 | 0.0±0.0 | 0.0±0.0 | 0.0±0.0 | significant effects | 0.1±0.3 | 0.8±0.6 | 1.2±0.8 | 2.3±0.7 | 2.9±0.3 | 3.0±0.0 | 0.0±0.0 | 0.0±0.0 | 0.0±0.0 | 0.0±0.0 | Beam balance test score ([2]; 90th day after birth, 5 mg/kg): 0.0±0.0; Beam balance test score ([2]; 95th day after birth, 5 mg/kg): 0.0±0.0; Beam balance test score ([2]; 100th day after birth, 5 mg/kg): 0.0±0.0; Beam balance test score ([2]; 105th day after birth, 5 mg/kg): 0.0±0.0; Beam balance test score ([2]; 110th day after birth, 5 mg/kg): 0.1±0.3; Beam balance test score ([2]; 115th day after birth, 5 mg/kg): 0.7±0.8; Beam balance test score ([2]; 120th day after birth, 5 mg/kg): 1.4±0.7; Beam balance test score ([2]; 125th day after birth): 2.0 ± 0.0; Beam balance test score ([2]; 130th day after birth): 2.0 ± 0.0; Beam balance test score ([2]; 135th day after birth): 2.0 ± 0.0; Beam balance test score ([2]; 140th day after birth): 2.0 ± 0.0; Beam balance test score [2, 3]: 2.0±0.0
N#Cc1cc(-c2n[nH]c(-c3ccncc3)n2)ccn1 [compound (b), 4-(5-pyridin-4-yl-1H-[1,2,4]triazol-3-yl)pyridine-2-carbonitrile] | 0.0±0.0 | 0.0±0.0 | 0.0±0.0 | 0.0±0.0 | 0.0±0.0 | 0.0±0.0 | 0.0±0.0 | 0.0±0.0 | 0.0±0.0 | significant effects | 0.1±0.3 | 0.6±0.7 | 1.4±0.7 | 2.3±0.7 | 2.9±0.3 | 3.0±0.0 | 0.0±0.0 | 0.0±0.0 | 0.0±0.0 | 0.0±0.0 | Beam balance test score ([2]; 90th day after birth, 5 mg/kg): 0.0±0.0; Beam balance test score ([2]; 95th day after birth, 5 mg/kg): 0.0±0.0; Beam balance test score ([2]; 100th day after birth, 5 mg/kg): 0.0±0.0; Beam balance test score ([2]; 105th day after birth, 5 mg/kg): 0.0±0.0; Beam balance test score ([2]; 110th day after birth, 5 mg/kg): 0.1±0.3; Beam balance test score ([2]; 115th day after birth, 5 mg/kg): 0.6±0.7; Beam balance test score ([2]; 120th day after birth, 5 mg/kg): 1.5±0.5; Beam balance test score ([2]; 125th day after birth): 2.0 ± 0.0; Beam balance test score ([2]; 130th day after birth): 2.0 ± 0.0; Beam balance test score ([2]; 135th day after birth): 2.0 ± 0.0; Beam balance test score ([2]; 140th day after birth): 2.0 ± 0.0; Beam balance test score [2, 3]: 2.0±0.0
